# Measurements from US12544375B2, “Small molecule therapeutic for parkinson's disease paired with a biomarker of therapeutic activity” (The Board of Trustees of the Leland Stanford Junior …, priority 2019, dated 2026).
# Test system: LRRK2^G2019S, PINK1 null and SNCA^A53T flies
# Test: Adult fly climbing ability (negative geotaxis)
# Type: in vivo
# Conditions: 2.5 μM in food, two models (LRRK2 and PINK1)
# Description: FIG. 4A-FIG. 4I. Miro1 Reducer Rescues PD-Relevant Phenotypes in Flies. For all panels, when Miro1 Reducer was not added, the same volume of the solvent, DMSO, was supplied in fly food. Drug administration (2.5 μM) was started from day 2. (FIG. 4A-FIG. 4C) Survival curves of LRRK2^G2019S (FIG. 4A), PINK1^B9 (imprecise excision, null) and PINK1^RV (the precise excision control for PINK1^B9) (FIG. 4B), and SNCA^A53T flies (FIG. 4C). n=58-150. (FIG. 4D) Dopaminergic (DA) neurons in the PPM1/2 clusters of 22-day old flies were immunostained with anti-TH. (FIG. 4D-FIG. 4F) Quantification of the DA neuron number in the PPL1 or PPM1/2 cluster (total number divided by 2 for each brain). (FIG. 4D) LRRK2^G2019S. n=6-8 brains. […]
# Fly climbing (negative geotaxis) ability was evaluated as previously described. Briefly, adult flies were gently tapped to the base of a modified 25 ml climbing tube and their climbing progress was recorded after 45 sec. Three populations of flies were assessed, and for each population, flies were examined 3 times per experiment. The recorded values were used to calculate Average Performance Index (PI). […] If the fly flew away, it was recorded as “1”, and if it was unable to fly, it was recorded as “0”. Wing posture was assessed by viewing each fly through a vial under a dissecting microscope. […] A normal wing posture or thorax (Course et al., 2018) was scored as “1”, otherwise “0”. […]
smiles,measurement,value
O=C(Nc1ccc(Nc2cc(-n3ccnc3)ncn2)cc1)Nc1cccc(F)c1 [Miro1 Reducer],locomotor decline (climbing ability),significantly rescued
